Source: ChEMBL document CHEMBL1201862, “PubChem BioAssay data set” (2004)
The source made the active and inactive calls.

Legend:
[1] = molecular target: Cytochrome P450 3A4 (Homo sapiens, UniProt P08684);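 further: CYP3A4 tested as one member of a cytochrome P450 panel screen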
[2] = molecular target: T1, Heat shock factor protein 1 (Mus musculus, UniProt P38532); test: inhibition of MG132-induced HSE-luciferase signal, confirmation, cell-based, NIH3T3, luminescence, dose retest (AID 2382); type: functional;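 further: NIH3T3 fibroblasts with HSF1-driven luciferase reporter stressed by proteasome inhibitor MG132; luminescence from HSF1-driven luciferase expression after 8 hours of MG132 stress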
T1 sequence (P38532 whole entry): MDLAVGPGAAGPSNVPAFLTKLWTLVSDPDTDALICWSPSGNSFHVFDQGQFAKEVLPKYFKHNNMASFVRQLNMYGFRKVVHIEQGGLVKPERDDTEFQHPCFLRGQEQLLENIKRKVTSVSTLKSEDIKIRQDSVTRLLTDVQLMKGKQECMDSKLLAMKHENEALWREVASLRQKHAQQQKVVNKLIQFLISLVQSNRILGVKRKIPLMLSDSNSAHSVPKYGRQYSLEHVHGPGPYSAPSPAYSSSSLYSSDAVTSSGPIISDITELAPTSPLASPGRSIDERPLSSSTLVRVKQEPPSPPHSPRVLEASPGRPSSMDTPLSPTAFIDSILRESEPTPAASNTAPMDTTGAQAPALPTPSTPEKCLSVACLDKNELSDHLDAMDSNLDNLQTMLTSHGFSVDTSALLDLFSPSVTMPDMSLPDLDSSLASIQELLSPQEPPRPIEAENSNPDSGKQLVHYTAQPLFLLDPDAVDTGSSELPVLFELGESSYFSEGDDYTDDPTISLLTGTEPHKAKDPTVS

[3] = test system: Streptococcus sp. 'group A'; test: growth inhibition of control SK(-) GAS strain, dose response, counter-screen for streptokinase expression inhibitor project, luminescence, kanamycin, BacTiterGlo, confirmation (AID 1900); type: functional, organism-based
[4] = test system: Streptococcus; test: Group A Streptococcus viability loss, dose response, counter-screen for streptokinase expression inhibitor project, luminescence, BacTiterGlo (AID 1915); type: functional, organism-based;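 further: potency for reduction of bacterial viability or growth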
[5] = molecular target: T2, Streptokinase A (Streptococcus pyogenes serotype M1, UniProt P10520); test: S. pyogenes streptokinase expression inhibitors, potency, dose response, plasminogen activation absorbance, OD405 (AID 1914); type: functional, Streptococcus pyogenes M1 GAS;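 further: secreted streptokinase activity via plasminogen activation per viability signal from cell pellet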
T2 sequence (P10520 whole entry): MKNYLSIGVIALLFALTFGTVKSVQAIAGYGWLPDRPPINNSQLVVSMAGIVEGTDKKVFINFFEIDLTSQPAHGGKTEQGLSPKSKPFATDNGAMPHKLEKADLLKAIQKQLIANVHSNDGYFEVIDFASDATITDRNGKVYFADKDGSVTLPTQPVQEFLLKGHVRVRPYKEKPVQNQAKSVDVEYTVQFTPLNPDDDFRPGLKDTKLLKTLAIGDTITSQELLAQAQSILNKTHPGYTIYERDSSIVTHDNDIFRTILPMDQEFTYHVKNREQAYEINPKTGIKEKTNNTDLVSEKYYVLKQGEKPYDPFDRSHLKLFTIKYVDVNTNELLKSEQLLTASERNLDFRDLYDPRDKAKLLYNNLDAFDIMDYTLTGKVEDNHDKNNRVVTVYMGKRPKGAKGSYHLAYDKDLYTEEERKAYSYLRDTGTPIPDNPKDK

[6] = HEp-2 cell cytotoxicity, dose response, cytotoxicity control for RSV inhibitor project, HTS (AID 2410); type: functional; settings: human respiratory syncytial virus
[7] = test system: INS1; test: beta cell apoptosis inhibitors, cytokine rescue, dose response, luminescence, retest (AID 449756); type: functional, cell-based; settings: Rattus norvegicus;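 further: cell death triggered by IL-1 beta plus TNF-alpha plus IFN-gamma mixture; protective hits raise ATP signal compared with cytokine alone wells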
[8] = molecular target: T3, Protein RecA (Mycobacterium tuberculosis, UniProt P9WHJ3); test: Fluorescence Cell-Free Homogeneous Dose Retest to Identify Inhibitors of RecA-Intein Splicing Activity. [Related pubchem assays (depositor defined):AID2097, AID2223, AID489010, AID492950]; type: functional
T3 sequence (P9WHJ3 whole entry): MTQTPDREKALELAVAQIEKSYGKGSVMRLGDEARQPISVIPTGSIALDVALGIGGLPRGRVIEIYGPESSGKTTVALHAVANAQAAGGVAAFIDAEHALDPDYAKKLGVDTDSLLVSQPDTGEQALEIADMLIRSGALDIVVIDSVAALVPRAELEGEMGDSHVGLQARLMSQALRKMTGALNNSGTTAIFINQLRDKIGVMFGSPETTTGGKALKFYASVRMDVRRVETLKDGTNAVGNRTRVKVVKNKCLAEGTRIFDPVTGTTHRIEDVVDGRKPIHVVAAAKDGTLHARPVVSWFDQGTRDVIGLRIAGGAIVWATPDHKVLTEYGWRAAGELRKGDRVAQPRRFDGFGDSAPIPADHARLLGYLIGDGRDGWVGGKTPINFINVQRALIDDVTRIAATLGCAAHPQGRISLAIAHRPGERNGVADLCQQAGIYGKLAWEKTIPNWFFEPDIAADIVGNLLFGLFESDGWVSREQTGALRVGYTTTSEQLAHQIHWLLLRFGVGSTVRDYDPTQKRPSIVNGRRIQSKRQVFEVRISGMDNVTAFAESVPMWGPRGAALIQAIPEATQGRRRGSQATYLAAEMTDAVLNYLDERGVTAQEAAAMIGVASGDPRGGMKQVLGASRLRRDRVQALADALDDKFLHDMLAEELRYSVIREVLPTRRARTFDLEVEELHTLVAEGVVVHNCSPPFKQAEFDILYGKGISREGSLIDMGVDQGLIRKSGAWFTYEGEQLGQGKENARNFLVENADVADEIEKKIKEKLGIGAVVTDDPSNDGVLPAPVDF

[9] = molecular target: Cytochrome P450 2C19 (Homo sapiens, UniProt P33261); test: Cytochrome panel assay with activity outcomes. Panel member name: p450-cyp2c19 Compounds with AC50 equal or less than 10 uM are considered active; type: functional; settings: read-out: AC50
Sequence of Cytochrome P450 2C19 (P33261 whole entry): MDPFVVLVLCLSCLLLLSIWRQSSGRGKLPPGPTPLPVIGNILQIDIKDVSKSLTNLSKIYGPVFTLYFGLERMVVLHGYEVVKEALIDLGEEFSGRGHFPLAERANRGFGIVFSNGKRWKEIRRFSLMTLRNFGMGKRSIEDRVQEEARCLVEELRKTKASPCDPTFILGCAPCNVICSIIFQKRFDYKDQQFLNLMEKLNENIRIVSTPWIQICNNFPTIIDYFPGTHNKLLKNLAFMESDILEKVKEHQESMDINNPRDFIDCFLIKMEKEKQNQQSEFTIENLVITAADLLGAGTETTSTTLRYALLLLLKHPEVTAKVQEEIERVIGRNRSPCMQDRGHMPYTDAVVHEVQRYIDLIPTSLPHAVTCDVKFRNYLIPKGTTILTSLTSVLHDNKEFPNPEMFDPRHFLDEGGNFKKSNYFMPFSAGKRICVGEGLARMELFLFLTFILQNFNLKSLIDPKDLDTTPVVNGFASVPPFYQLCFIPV

[10] = molecular target: T4, Cytochrome P450 1A2 (Homo sapiens, UniProt P05177);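 further: PubChem cytochrome P450 panel assay, CYP1A2 panel member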
T4 sequence (P05177 whole entry): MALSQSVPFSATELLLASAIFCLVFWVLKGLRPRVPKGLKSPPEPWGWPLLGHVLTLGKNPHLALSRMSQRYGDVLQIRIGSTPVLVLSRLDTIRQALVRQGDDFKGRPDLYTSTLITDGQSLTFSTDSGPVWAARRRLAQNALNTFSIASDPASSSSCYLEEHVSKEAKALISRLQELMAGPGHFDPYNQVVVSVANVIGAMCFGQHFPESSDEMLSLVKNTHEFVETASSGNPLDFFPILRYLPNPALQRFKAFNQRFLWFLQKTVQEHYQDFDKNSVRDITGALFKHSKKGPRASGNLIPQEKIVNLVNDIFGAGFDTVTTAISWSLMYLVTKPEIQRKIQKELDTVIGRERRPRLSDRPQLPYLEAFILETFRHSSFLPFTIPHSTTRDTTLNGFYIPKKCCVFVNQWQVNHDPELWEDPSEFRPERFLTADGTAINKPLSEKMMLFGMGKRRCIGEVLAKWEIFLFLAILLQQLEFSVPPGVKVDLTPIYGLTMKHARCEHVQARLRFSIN

Sequence of Cytochrome P450 3A4 (P08684 whole entry): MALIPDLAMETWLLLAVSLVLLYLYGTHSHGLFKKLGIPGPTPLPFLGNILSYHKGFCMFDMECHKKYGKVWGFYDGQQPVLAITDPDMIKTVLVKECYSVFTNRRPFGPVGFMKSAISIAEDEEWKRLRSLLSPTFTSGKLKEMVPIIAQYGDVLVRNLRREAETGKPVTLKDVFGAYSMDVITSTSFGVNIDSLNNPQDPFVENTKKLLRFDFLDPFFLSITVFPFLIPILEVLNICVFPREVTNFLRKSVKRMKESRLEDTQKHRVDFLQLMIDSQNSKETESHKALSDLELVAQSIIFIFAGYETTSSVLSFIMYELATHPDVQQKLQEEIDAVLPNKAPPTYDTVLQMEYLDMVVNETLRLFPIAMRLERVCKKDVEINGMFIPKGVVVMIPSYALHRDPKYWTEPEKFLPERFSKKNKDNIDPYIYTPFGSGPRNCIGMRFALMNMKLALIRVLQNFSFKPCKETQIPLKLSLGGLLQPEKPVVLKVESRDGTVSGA

SMILES: Cc1ccc(N=Nc2c(N)nn3c(O)c4c(nc23)CCCC4)cc1
- AC50 [1]: 7.94 µM (inconclusive)

SMILES: COc1ccc(NC(=O)N2CCCC3(CCN(C(=O)c4cccc(F)c4)CC3)C2)cc1
- AC50 [1]: 15.8 µM (inconclusive)

SMILES: CCOC(=O)c1cnc2ccccc2c1Nc1ccc2c(c1)OCCO2
- EC50 [2]: 6 µM (active)

SMILES: C/C(=N/NC(=O)c1cc(-c2ccccc2)nc2c(Cl)cccc12)c1cccnc1
- EC50 [3]: > 150 µM (not active)
- EC50 [4]: > 150 µM (not active)
- EC50 [5]: 25.9 µM (inconclusive)

SMILES: CNC(=O)/C(C#N)=C/c1ccc(-c2ccc(OC)cc2[N+](=O)[O-])o1
- EC50 [2]: > 195 µM (not active)

SMILES: CSc1nc(-c2ccc(C)cc2)nc(N)c1C#N
- CC50 [6]: 49.6 µM (active)

SMILES: COCc1ccc(O)c2ncccc12
- AC50 [7]: 5 µM (active)

SMILES: COC(=O)CCC(=O)NNC(=O)c1cccc(Br)c1
- EC50 [2]: > 195 µM (not active)

SMILES: CCCCOc1ccccc1C1C(C(=O)OC)=C(C)N(C)C(C)=C1C(=O)OC
- CC50 [6]: > 50 µM (active)

SMILES: CC(C)Oc1ccc(C(=O)O)cc1
- EC50 [2]: 69.4 µM (active)

SMILES: O=C(c1cc(Cl)ccc1Cl)N1CCOCC1
- EC50 [2]: > 195 µM (not active)

SMILES: Cc1ccc(S(=O)(=O)N(CC(=O)N2CCc3ccccc3C2)c2ccc(Cl)c(Cl)c2)cc1
- EC50 [2]: > 195 µM (not active)

SMILES: COc1ccc(C(=O)NC(=S)N2CCNC(=O)C2CC(=O)OC(C)C)cc1 (centres undefined)
- EC50 [2]: > 195 µM (not active)

SMILES: Cn1cc(Cl)c(-c2nnc(S)n2-c2ccc(F)cc2)n1
- EC50 [2]: > 195 µM (not active)

SMILES: O=C(Nc1ccccc1)N1CC[C@@]2(CCCN(C(=O)c3ccncc3)C2)C1
- AC50 [1]: 15.8 µM (inconclusive)

SMILES: O=C(c1ccccc1)c1sc(N2CCCCCC2)nc1-c1ccccc1
- CC50 [6]: 31.1 µM (active)

SMILES: Fc1ccccc1N1CCN(Cc2cc(-c3ccccc3)on2)CC1
- EC50 [2]: > 195 µM (not active)

SMILES: O=C(Nc1ccc2c(c1)OCO2)C1CCN(C(=O)CSc2ncnc3ccccc23)CC1
- CC50 [6]: 41.4 µM (active)

SMILES: CC1=NN(c2cccc(Cl)c2)C(=O)C12CC(C)=C(C)CS2 (centres undefined)
- EC50 [8]: 13.2 µM (active)

SMILES: O=C(NC(=S)Nc1cccc(-c2ccc(CO)o2)c1)c1cccs1
- EC50 [3]: 23.1 µM (active)
- EC50 [4]: 68.4 µM (active)
- EC50 [5]: > 150 µM (not active)

SMILES: Cc1cc2nc(C3CCCN(C(S)=Nc4ccccc4)C3)[nH]c2cc1C (centres undefined)
- AC50 [1]: 0.141 µM (inconclusive)
- AC50 [9]: 7.08 µM (inconclusive)
- AC50 [10]: 1.58 µM (inconclusive)

SMILES: CC(COc1ccc(C(C)C)cc1)NC(=O)c1ccc(Br)o1 (centres undefined)
- EC50 [3]: 45.6 µM (active)
- EC50 [4]: > 150 µM (not active)
- EC50 [5]: > 150 µM (not active)

SMILES: Cc1ccc(NC(S)=NC2CCCC2)cc1
- AC50 [1]: 10 µM (inconclusive)

SMILES: Oc1ccc(Oc2ccc(Oc3ccc(O)cc3)cc2)cc1
- EC50 [3]: 8.4 µM (active)
- EC50 [4]: 18.4 µM (active)
- EC50 [5]: > 150 µM (not active)

SMILES: c1cc2c(cc1C1CCCN1)OCCCO2 (centres undefined)
- EC50 [2]: > 195 µM (not active)

SMILES: COc1ccc(NC(=O)N2CCCC3(CCN(C(=O)c4cc(C(F)(F)F)cc(C(F)(F)F)c4)CC3)C2)cc1
- AC50 [1]: 10 µM (inconclusive)

SMILES: CCCC(C)n1nc(O)c2c1NC(=O)CSC2c1ccc(OC)c(OC)c1 (centres undefined)
- EC50 [2]: > 195 µM (not active)

SMILES: Cc1cccn2cc(-c3cccc(S(=O)(=O)N4CC(C)OC(C)C4)c3)nc12 (centres undefined)
- CC50 [6]: 44.6 µM (active)

SMILES: O=C1CCCC=C1[C@H](CCc1ccccc1)OC(=O)c1ccc(Br)cc1
- AC50 [1]: 5.01 µM (inconclusive)

SMILES: COc1ccc(N2C(=O)NC3CC2(C)Oc2ccccc23)cc1OC (centres undefined)
- AC50 [1]: 22.4 µM (inconclusive)
- AC50 [9]: 7.94 µM (inconclusive)

SMILES: CCCC(=O)N1c2ccccc2C(N(C(C)=O)c2ccccc2)CC1C (centres undefined)
- AC50 [1]: 0.891 µM (inconclusive)

SMILES: O=C(CC1CC2CCC1C2)NCCc1ccc(Cl)cc1 (centres undefined)
- AC50 [7]: > 260 µM (inactive)

SMILES: COc1ccc(CNc2cc(-c3ccccc3CN(C)C)ncn2)c(OC)c1
- AC50 [1]: 15.8 µM (inconclusive)
- AC50 [10]: 15.8 µM (inconclusive)

SMILES: CCOC(=O)N1CCN(c2cc(N)c([N+](=O)[O-])cc2F)CC1
- CC50 [6]: > 50 µM (active)

SMILES: COc1cc(/C=N/NC(=O)c2cc(-c3cccc(Br)c3)nc3ccccc23)cc(OC)c1O
- CC50 [6]: 36 µM (active)

SMILES: CSc1nc2ccc(NS(=O)(=O)c3ccc([N+](=O)[O-])cc3)cc2s1
- EC50 [2]: > 195 µM (not active)

SMILES: CCN(CC)CCN(C(=O)C1=COCCO1)c1nc2cc(C)cc(C)c2s1
- EC50 [3]: > 150 µM (not active)
- EC50 [4]: > 150 µM (not active)
- EC50 [5]: > 150 µM (not active)

SMILES: O=C(Nc1ccc(F)cc1)N1CCCCCC1
- EC50 [3]: > 150 µM (not active)
- EC50 [4]: > 150 µM (not active)
- EC50 [5]: > 150 µM (not active)

SMILES: NS(=O)(=O)Cc1noc2ccccc12
- AC50 [1]: 31.6 µM (inconclusive)

SMILES: O=C(CCCOc1ccccc1)Nc1nccs1
- EC50 [2]: > 195 µM (not active)

SMILES: COc1ccc(CNC(=O)Cc2csc(NC(=O)Nc3ccccc3OC)n2)cc1
- EC50 [3]: > 150 µM (not active)
- EC50 [4]: > 150 µM (not active)
- EC50 [5]: > 150 µM (not active)
